From patent publication US4315023A, “1-Phenethylimidazole derivatives” (Westwood Pharmaceuticals, Inc., priority 1980, dated 1982)

Tests used:
Candida albicans = Candida albicans induced vaginal infection in mice; assay type: in vivo, female mice; conditions: Table I; percentage drug concentration giving 50% of the score of untreated control; intravaginal
Method: A majority of the compounds of formula 3 were evaluated together with the prior art compound of formula 2 in a Candida albicans induced vaginal infection in mice and a Trichophyton quinekeanum induced skin infection in guinea pigs. Sabouraud broth was inoculated with Candida albicans and the inoculum incubated for two days at 28° C. on a rotary shaker. Groups of four to five female mice weighing between 18-21 grams were infected intravaginally with a 0.01 ml portion of the cell suspension containing 10^8 cells/ml on day 0. The mice were treated subcutaneously with 0.5 mg of estradiol benzoate three days before and four days after infection. The test compounds were suspended in 1% carboxymethyl cellulose and 0.02 ml of the suspension was instilled intravaginally from day 0 (four hours after infection) to day 4 (5 applications). On day 7, vaginal exudate was taken by a thin glass rod and streaked on a YGP agar plate containing 100 mcg/ml of chloramphenicol. The plate was incubated for two days at 28° C. […] In the following Table I the antifungal activity of the test compound is reported as the EC50 value, which is the percentage drug concentration giving 50% of the score of untreated control animals. The EC50 was calculated by the method of least squares (K. Brounlee: Statistical Theory and Methodology in Science and Engineering, pages 345-349, Wiley Press, New York, 1965). In Table II a more detailed comparison on the in vivo antifungal activities of compound 3a and the isomeric prior art compound 2 are shown together with the data for compound 3b.

Trichophyton quinekeanum = Trichophyton quinekeanum induced skin infection in guinea pigs; assay type: in vivo, male guinea pigs; conditions: Table I; percentage drug concentration giving 50% of the score of untreated control; topical ointment
Method: In the guinea pig skin infection test, Trichophyton quinekeanum was cultured on a YGP agar slant at 28° C. for 10 days. Spores were collected from the mycelial mat and suspended in Sabouraud broth containing 2% of Tween 80. Groups of 3 male guinea pigs weighing between 400-500 g were used for each dose of test compound. The flanks of the animals were depilated and injured with sandpaper. The injured area was inoculated and rubbed with a glass rod on day 0 with 0.2 ml of the spore suspension containing 10^8 CFU/ml. The test compound was combined with a 1:1 mixture of polyethylene glycol 400 and 4000, and 0.3 ml of the ointment was applied to the infected area on day 1, 3 and 5. Lesions were examined on day 7 and scored as follows: 0, normal; 1, erythema; 2, erythema with whitish area; 3, erythema and numerous whitish areas; 4, erythema with confluent scaling and whitish pateches. A compound showing a mean score of 1.5 or less was considered active.
In the following Table I the antifungal activity of the test compound is reported as the EC50 value, which is the percentage drug concentration giving 50% of the score of untreated control animals. The EC50 was calculated by the method of least squares (K. Brounlee: Statistical Theory and Methodology in Science and Engineering, pages 345-349, Wiley Press, New York, 1965). In Table II a more detailed comparison on the in vivo antifungal activities of compound 3a and the isomeric prior art compound 2 are shown together with the data for compound 3b.
Treatment: 5 applications (day 0 to 4) against candida vaginal infection
and 3 applications (day 1, 3 and 5) against trichophyton skin infection

Streptococcus pneumoniae = experiment: in vitro antibacterial activity (MIC), S. pneumoniae; assay type: cell-based; conditions: 50% Nutrient Broth + 5% human serum
Streptococcus pyogenes = experiment: in vitro antibacterial activity (MIC), S. pyogenes; assay type: cell-based; conditions: 50% Nutrient Broth + 5% human serum
S. faecalis = experiment: in vitro antibacterial activity (MIC), S. faecalis; assay type: cell-based, Streptococcus faecalis; conditions: Enterococcus faecalis; Nutrient Broth
Staphylococcus aureus = experiment: in vitro antibacterial activity (MIC), S. aureus; assay type: cell-based; conditions: Nutrient Broth

Question: With `Clc1ccc(C(Cn2ccnc2)SCSCc2ccsc2Cl)c(Cl)c1.O=C(O)C(=O)O` (centres unmarked) [Compound 3h, 1-[2-(2-Chloro-3-thienylmethylthiomethylthio)2-(2,4-dichlorophenyl)ethyl]-1H-imidazole hydrogen oxalate] as the compound, how does the “EC50, Candida Vaginal Infection” value (Candida albicans) read?
Answer: 0.050%

Question: And the “EC50, Trichophyton Skin Infection” value (Trichophyton quinekeanum)?
Answer: 0.047%

Question: What about the MIC (Streptococcus pneumoniae) of the same compound?
Answer: 63 µg/mL

Question: And the MIC (Streptococcus pyogenes)?
Answer: 32 µg/mL

Question: And the MIC (S. faecalis)?
Answer: 2 µg/mL

Question: What about the MIC (Staphylococcus aureus; Strain A) of the same compound?
Answer: 0.5 µg/mL

Question: And the MIC (Staphylococcus aureus; Strain B)?
Answer: 16 µg/mL

Question: And the MIC (Staphylococcus aureus; Strain C)?
Answer: 0.5 µg/mL
